Results: publication PMC7041944 (eLife, 2020)
Read-outs that look alike come from different tables or passages of the source.

Columns and labels:
[1] = system: KOR; type: cell-based, murine
[2] = system: MOR; type: cell-based, murine
[3] = system: MOR; type: cell-based, murine; remark: listed apart in the source
[4] = system: KOR; type: cell-based, murine; remark: listed apart in the source
[5] = system: KOR; type: cell-based, murine; remark: listed apart in the source
[6] = system: KOR; type: cell-based, murine; remark: listed apart in the source
[7] = system: KOR; experiment: mGs probe recruitment to KOR (TIR-FM); type: cell-based, murine; conditions: DynA 1 nM - 10 μM; Venus-mGs, HEK293, TIR-FM
Description: Live cell image series measuring protein recruitment to the plasma membrane were performed at 37°C using a Nikon Ti-E microscope equipped for through-the-objective TIR-FM with a temperature-, humidity- and CO2-controlled chamber (Okolab), objective heater, perfect focus system, and an Andor DU897 EMCCD camera. Images were obtained with a 100 × 1.49 NA Apo TIRF objective (Nikon) with solid-state lasers of 488, 561 and 647 nm (Keysight Technologies). Before imaging, receptors at the cell surface were labelled with M1 monoclonal FLAG antibody (1:1,000) conjugated to Alexa647 dye for 10 min at 37°C. Cells were then washed and live imaged in HBS imaging solution (Hepes buffered saline (HBS) with 135 mM NaCl, 5 mM KCl, 0.4 mM MgCl2,1.8 mM CaCl2, 20 mM Hepes, 5 mM d-glucose adjusted to pH 7.4 and 300–315 mOsmol/l). Agonists or antagonists were either added by bath application at concentrations indicated in the figure legends or by media perfusion. For the latter, an insert was 3D-printed and placed inside the imaging dish where it left a dead volume of about 300 μL. […]
For probing protein recruitment to the plasma membrane, HEK293 cells co-expressing the cytosolic protein of interest (mGsi, Nb33, or GRK2) and MOR or KOR were imaged using TIR-FM. […] Protein intensity during time lapse series was measured using ImageJ. […]

[8] = system: KOR; type: cell-based, murine; remark: listed apart in the source
[9] = molecular target: signal sequence FLAG (ssf)-KOR, murine (kappa opioid receptor) (murine) (UniProt P33534); experiment: TIR-FM recruitment of a fluorescent cytosolic protein to the plasma membrane of living cells; HEK293 cells co-expressing the fluorescent cytosolic protein and the receptor; 37 C, HBS imaging solution pH 7.4; agonists added in rising concentrations (1 nM - 10 uM) by bath application or perfusion: DynA, U69, U50, etorphine for KOR; DAMGO, etorphine, morphine, PZM21, MP for MOR; reversed by the antagonists 5'GNTI or naloxone; also with Cmpd101 (30 uM)
Sequence of UniProt P33534 (P33534 whole entry, the tested form may be a part): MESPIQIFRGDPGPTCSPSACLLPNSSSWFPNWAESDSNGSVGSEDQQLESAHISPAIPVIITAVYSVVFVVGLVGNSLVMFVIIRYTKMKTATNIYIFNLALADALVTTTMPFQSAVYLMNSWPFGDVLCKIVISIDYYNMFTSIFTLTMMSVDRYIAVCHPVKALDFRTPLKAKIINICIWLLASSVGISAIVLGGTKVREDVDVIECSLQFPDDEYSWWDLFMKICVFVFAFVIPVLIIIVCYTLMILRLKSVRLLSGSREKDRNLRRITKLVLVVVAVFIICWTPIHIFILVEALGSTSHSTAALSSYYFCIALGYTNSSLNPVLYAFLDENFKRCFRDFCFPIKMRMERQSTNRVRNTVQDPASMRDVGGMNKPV

Cl.Cl.NC(N)=Nc1ccc2[nH]c3c(c2c1)C[C@@]1(O)[C@H]2Cc4ccc(O)c5c4[C@@]1(CCN2CC1CC1)[C@H]3O5 [5’GNTI, GNTI dihydrochloride]
reversal of DynA-induced mGsi recruitment by KOR antagonist [1]: rapid redistribution of the biosensor back to the cytoplasm

CC[C@@H]1CN2CC[C@]3(Nc4cccc(OC)c4C3=O)[C@@H]2C[C@@H]1/C(=C\OC)C(=O)OC [MP, mitragynine pseudoindoxyl]
mGsi/Nb33, ratio of intrinsic activities [2]: 7.47
I.A.(mGsi), intrinsic activity (maximal response) ([2]; SEM): 0.31±0.02
Nb33 recruitment by MOR (in words) [3]: without promoting detectable recruitment
I.A.(Nb33), intrinsic activity (maximal response) ([3]; SEM): 0.04±0.05

C[C@@H](Cc1ccsc1)NC(=O)NC[C@H](Cc1ccc(O)cc1)N(C)C [PZM21]
mGsi/Nb33, ratio of intrinsic activities [2]: 2.60
I.A.(mGsi), intrinsic activity (maximal response) ([2]; SEM): 0.70±0.02
I.A.(Nb33), intrinsic activity (maximal response) ([3]; SEM): 0.27±0.05

DAMGO, [D-Ala2, N-Me-Phe4, Gly5-ol]-Enkephalin acetate salt
I.A.(mGsi), intrinsic activity (maximal response) [2]: 1.00
mGsi/Nb33, ratio of intrinsic activities [2]: 1
I.A.(Nb33), intrinsic activity (maximal response) [3]: 1.00

Dynorphin A (1–17, DynA)
GRK2 recruitment in cells pre-exposed to pertussis toxin [4]: significant recruitment response
I.A.(Nb33), intrinsic activity (maximal response) [5]: 1.00
I.A.(mGsi), intrinsic activity (maximal response) [1]: 1.00
mGsi/Nb33, ratio of intrinsic activities [1]: 1
recruitment of isolated C-terminal PH domain from GRK2 (GRK2-C-tail) [6]: similarly strong recruitment
mGs recruitment in response to KOR activation [7]: not detectably recruited
GRK2 accumulation at KOR-containing clusters (in words) [8]: specifically accumulated at the KOR-containing clusters

NES-Venus-mGsi (mini-G protein: Ras-like domain of Gs alpha with nine distal C-terminal residues from Gi alpha1) (designed binder)
maximum recruitment with etorphine, percent of that with DynA [9]: 67%
